# Publication PMC10925993, “6-Aryl-4-cycloamino-1,3,5-triazine-2-amines: synthesis, antileukemic activity, and 3D-QSAR modelling” (RSC Advances, 2024)
# Like-named read-outs stand apart in the source and are kept apart here.
# How the values were obtained:
# [1] = system: Jurkat T cells; assay: Antiproliferative screening at 10 μM, MTS assay; format: cell-based, human; conditions: Homo sapiens, read-out: Cell viability (%)
# Description: The Jurkat T cell line was chosen for its reliability as a model for chemotherapeutic studies, particularly in T-cell leukemia.[13]
# An MTS (3-(4,5-dimethylthiazol-2-yl)-5-(3-carboxymethoxyphenyl)-2-(4-sulfophenyl)-2H-tetrazolium inner salt) assay[20] was used to assess the leukemic cell viability. […] A total of 2 × 10^3 cells per 100 μL cell culture media were seeded into each well of a 96-well plate and incubated for 24 h. Then, tested compounds or reference drugs [6-mercaptopurine (Merck Millipore, Germany), methotrexate (Merck Millipore, Germany) and cytarabine (Merck Millipore, Germany)] were added, followed by incubation for 72 h. […] The absorbance in each well was measured at 490 nm using a microplate reader (Tecan NanoQuant Infinite M200 Pro, Austria). The percentage of cell viability was estimated by comparing absorbance in wells with the treated and untreated (vehicle control) cells using the following formula: ODtreated/ODuntreated × 100%. All experiments were performed in triplicate and repeated in three independent experiments. The GI50 values were calculated using sigmoidal concentration-response curves generated by the GraphPad Prism 8 program.[21]
# [2] = Jurkat T cells, 10 μM, 72 h after treatment, MTS, mean of three independent experiments
SMILES,"viability at 10 µM [1, 2]",melting point,"viability at 10 µM ([1]; Jurkat, 72 h)"
"Nc1nc(-c2ccccc2)nc(N2CCCC2)n1 [9{1,1}]",100%,,
"Nc1nc(-c2cccc(F)c2)nc(N2CCCC2)n1 [9{1,2}, 6-(3-Fluorophenyl)-4-pyrrolidino-1,3,5-triazine-2-amine]",100%,182 to 183 °C,
"Nc1nc(-c2ccc(F)cc2)nc(N2CCCC2)n1 [9{1,3}, 6-(4-Fluorophenyl)-4-pyrrolidino-1,3,5-triazine-2-amine]",97%,202 to 203 °C,
"Cc1cccc(-c2nc(N)nc(N3CCCC3)n2)c1 [9{1,5}, 6-(3-Methylphenyl)-4-pyrrolidino-1,3,5-triazine-2-amine]",82%,185 to 186 °C,
"Cc1ccc(-c2nc(N)nc(N3CCCC3)n2)cc1 [9{1,6}, 6-(4-Methylphenyl)-4-pyrrolidino-1,3,5-triazine-2-amine]",100%,229 to 230 °C,
"CC(C)(C)c1ccc(-c2nc(N)nc(N3CCCC3)n2)cc1 [9{1,7}, 6-[4-(tert-Butyl)phenyl]-4-pyrrolidino-1,3,5-triazine-2-amine]",88%,196 to 197 °C,
"COc1ccc(-c2nc(N)nc(N3CCCC3)n2)cc1 [9{1,9}, 6-(4-Methoxyphenyl)-4-pyrrolidino-1,3,5-triazine-2-amine]",100%,208 to 209 °C,
"Nc1nc(-c2cccc([N+](=O)[O-])c2)nc(N2CCCC2)n1 [9{1,10}, 6-(3-Nitrophenyl)-4-pyrrolidino-1,3,5-triazine-2-amine]",94%,207 to 208 °C,
"Nc1nc(-c2ccc(C(F)(F)F)cc2)nc(N2CCCC2)n1 [9{1,11}, 6-[4-(Trifluoromethyl)phenyl]-4-pyrrolidino-1,3,5-triazine-2-amine]",78%,186 to 187 °C,
"Nc1nc(-c2ccc(OC(F)(F)F)cc2)nc(N2CCCC2)n1 [9{1,12}, 6-[4-(Trifluoromethoxy)phenyl]-4-pyrrolidino-1,3,5-triazine-2-amine]",96%,149 to 150 °C,
"Nc1nc(-c2cccc(Oc3ccccc3)c2)nc(N2CCCC2)n1 [9{1,13}, 6-(3-Phenoxyphenyl)-4-pyrrolidino-1,3,5-triazine-2-amine]",87%,170 to 171 °C,
"Nc1nc(-c2ccc(OCc3ccccc3)cc2)nc(N2CCCC2)n1 [9{1,15}, 6-[4-(Benzyloxy)phenyl]-4-pyrrolidino-1,3,5-triazine-2-amine]",94%,201 to 202 °C,
"COc1ccc(-c2nc(N)nc(N3CCCC3)n2)cc1OC [9{1,16}, 6-(3,4-Dimethoxyphenyl)-4-pyrrolidino-1,3,5-triazine-2-amine]",95%,217 to 218 °C,
"COc1cc(-c2nc(N)nc(N3CCCC3)n2)cc(OC)c1OC [9{1,17}, 6-(3,4,5-Trimethoxyphenyl)-4-pyrrolidino-1,3,5-triazine-2-amine]",98%,213 to 214 °C,
"Nc1nc(-c2cccs2)nc(N2CCCC2)n1 [9{1,18}, 4-Pyrrolidino-6-(2-thienyl)-1,3,5-triazine-2-amine]",100%,210 to 211 °C,
"Nc1nc(-c2ccccc2)nc(N2CCCCC2)n1 [9{2,1}]",100%,,
"Nc1nc(-c2cccc(F)c2)nc(N2CCCCC2)n1 [9{2,2}, 6-(3-Fluorophenyl)-4-piperidino-1,3,5-triazine-2-amine]",62%,138 to 139 °C,
"Nc1nc(-c2ccc(F)cc2)nc(N2CCCCC2)n1 [9{2,3}, 6-(4-Fluorophenyl)-4-piperidino-1,3,5-triazine-2-amine]",98%,156 to 157 °C,
"Nc1nc(-c2ccc(Cl)cc2)nc(N2CCCCC2)n1 [9{2,4}, 6-(4-Chlorophenyl)-4-piperidino-1,3,5-triazine-2-amine]",83%,177 to 178 °C,
"Cc1ccc(-c2nc(N)nc(N3CCCCC3)n2)cc1 [9{2,6}, 6-(4-Methylphenyl)-4-piperidino-1,3,5-triazine-2-amine]",100%,,
"COc1ccc(-c2nc(N)nc(N3CCCCC3)n2)cc1 [9{2,9}, 6-(4-Methoxyphenyl)-4-piperidino-1,3,5-triazine-2-amine]",100%,178 to 179 °C,
"Nc1nc(-c2cccc([N+](=O)[O-])c2)nc(N2CCCCC2)n1 [9{2,10}, 6-(3-Nitrophenyl)-4-piperidino-1,3,5-triazine-2-amine]",100%,158 to 159 °C,

SMILES,"viability at 10 µM [1, 2]",melting point,"viability at 10 µM ([1]; Jurkat, 72 h)"
"CC1CCN(c2nc(N)nc(-c3ccccc3)n2)CC1 [9{3,1}]",100%,,
"CC1CCN(c2nc(N)nc(-c3cccc(F)c3)n2)CC1 [9{3,2}, 6-(3-Fluorophenyl)-4-(4-methylpiperidino)-1,3,5-triazine-2-amine]",61%,125 to 126 °C,
"CC1CCN(c2nc(N)nc(-c3ccc(F)cc3)n2)CC1 [9{3,3}, 6-(4-Fluorophenyl)-4-(4-methylpiperidino)-1,3,5-triazine-2-amine]",86%,> 300 °C,
"COc1cc(-c2nc(N)nc(N3CCC(C)CC3)n2)cc(OC)c1OC [9{3,17}, 6-(3,4,5-Trimethoxyphenyl)-4-(4-methylpiperidino)-1,3,5-triazine-2-amine]",95%,,
"CN1CCN(c2nc(N)nc(-c3ccccc3)n2)CC1 [9{4,1}]",100%,,
"CN1CCN(c2nc(N)nc(-c3ccc(Cl)cc3)n2)CC1 [9{4,4}, 6-(4-Chlorophenyl)-4-(4-methylpiperazino)-1,3,5-triazine-2-amine]",,,100%
"Nc1nc(-c2ccccc2)nc(N2CCOCC2)n1 [9{5,1}]",98%,,
"Nc1nc(-c2cccc(F)c2)nc(N2CCOCC2)n1 [9{5,2}]",100%,,
"Nc1nc(-c2ccc(F)cc2)nc(N2CCOCC2)n1 [9{5,3}]",100%,,
"Nc1nc(-c2ccc(Cl)cc2)nc(N2CCOCC2)n1 [9{5,4}]",100%,,
"Cc1cccc(-c2nc(N)nc(N3CCOCC3)n2)c1 [9{5,5}]",100%,,
"Cc1ccc(-c2nc(N)nc(N3CCOCC3)n2)cc1 [9{5,6}]",100%,,
"CC(C)(C)c1ccc(-c2nc(N)nc(N3CCOCC3)n2)cc1 [9{5,7}]",60%,,
"CN(C)c1ccc(-c2nc(N)nc(N3CCOCC3)n2)cc1 [9{5,8}]",100%,,
"COc1ccc(-c2nc(N)nc(N3CCOCC3)n2)cc1 [9{5,9}]",100%,,
"Nc1nc(-c2ccc(OC(F)(F)F)cc2)nc(N2CCOCC2)n1 [9{5,12}]",100%,,
"Nc1nc(-c2cccc(Oc3ccccc3)c2)nc(N2CCOCC2)n1 [9{5,13}]",78%,,
"Nc1nc(-c2cccc(OCc3ccccc3)c2)nc(N2CCOCC2)n1 [9{5,14}]",63%,,
"Nc1nc(-c2ccc(OCc3ccccc3)cc2)nc(N2CCOCC2)n1 [9{5,15}]",94%,,
"COc1ccc(-c2nc(N)nc(N3CCOCC3)n2)cc1OC [9{5,16}]",100%,,
"COc1cc(-c2nc(N)nc(N3CCOCC3)n2)cc(OC)c1OC [9{5,17}]",100%,,
"Nc1nc(-c2cccs2)nc(N2CCOCC2)n1 [9{5,18}]",77%,,
